Patent US6532386B2, “Electrotransort device comprising blades” (Johnson & Johnson Consumer Companies, Inc., priority 1998, dated 2003)

Assays:
[1] = From the text: The stratum corneum was physically disrupted by repeatedly scratching the skin of a pig with 400 μm blades 20 times, 10 scratchings in one direction, 10 more in a direction perpendicular to the previous direction. Two electrodes were constructed with hollow 3.5 cm by 3.5 cm by 0.5 cm polystyrene vessels each having a volume of about 5 cm^3. A 3 cm by 3 cm by 0.5 mm piece of stainless steel was adhered to the inside of each polystyrene vessel. The electrodes were affixed to the skin of the pig with Dow Corning 355 Medical Adhesive available from Dow Corning of Midland, Mich.
An insulin solution available as Humulin-®(500 units/mL) from Eli Lilly and Co. of Indianapolis, Ind., was injected into the vessel with a hyperdermic needle. Iontophoresis was performed with direct current at a current intensity of 4 mA over about 12 cm^2 of skin. The electric polarity was manually reversed every 5 minutes for 2 hours. The blood glucose concentration and insulin serum concentration in the pig were periodically measured before, during, and after iontophoresis.
The skin on a pig was wiped generously with 200 proof ethanol and allowed to dry to induce skin permeation enhancement. The procedure described in Example 5 was then repeated. The blood glucose concentration and insulin serum concentration in the pig were monitored for 6 hours. […]

[2] = Transdermal reverse polarity iontophoresis of insulin in pig: blood glucose concentration; type: in vivo
Procedure: The procedure in Example 3 was repeated, except the stratum corneum of the pig was not disrupted with 400 μm blades and reverse polarity iontophoresis was only conducted for 30 minutes. […] Thus, no insulin was apparently delivered during the iontophoresis process.
The procedure in Example 4 was repeated, except 800 μm blades were pressed against the stratum corneum of a diabetic pig before iontophoresis was performed. The blood glucose in the pig was monitored for 9 hours.
The procedure described in Example 5 was then repeated.
The procedure in Example 5 was repeated except that ethyl cyanoacrylate was applied to the surface of the 800 μm blades before the blades were pressed against the skin of the pig. The blades were held against the skin of the pig for 2 minutes prior to performing iontophoresis to allow the ethyl cyanoacrylate to solidify prior to removal. […] The blood glucose concentration in the pig was monitored for 8 hours. The quantity of insulin delivered was so large that the hyperglycemic pig having an initial blood glucose concentration of 180 mg/dl became seriously hypoglycemic with a blood glucose concentration of 25 mg/dl.

[3] = Example 5: diabetic pig, 800 μm blades, iontophoresis 30 minutes

insulin
insulin serum rise (insulin serum concentration) ([1]; Example 3: pig skin scratched with 400 μm blades, reverse polarity iontophoresis for 2 hours, from 25): 590 _IU/ml | serum insulin concentration ([1]; Example 6: skin wiped with 200 proof ethanol, 800 μm blades, after one hour): approximately 60 _IU/ml | reduction in blood glucose ([2]; Comparative Example 4: stratum corneum not disrupted with blades, reverse polarity iontophoresis 30 minutes): lack of any reduction in blood glucose | blood glucose concentration ([2]; Example 3: pig skin scratched with 400 μm blades, iontophoresis 4 mA over about 12 cm^2, polarity reversed every 5 minutes for 2 hours, from 140 mg/dl): 30 mg/dL | reduction of the blood glucose concentration ([2]; Example 3: pig skin scratched with 400 μm blades, reverse polarity iontophoresis for 2 hours): ~80% | reduction in the blood glucose concentration ([2]; Example 5: diabetic pig, 800 μm blades pressed against stratum corneum, iontophoresis 30 minutes, monitored 9 hours): ~37% | blood glucose level maintained [2, 3]: below 140 mg/dl | time blood glucose level was maintained below 140 mg/dl [2, 3]: over 8 hours | reduction of blood glucose ([2]; Example 6: skin wiped with 200 proof ethanol, 800 μm blades, after 2 hours): ~50% | reduction of blood glucose ([2]; Example 7: skin pre-treated with Nair lotion (calcium thioglycolate), 800 μm blades, iontophoresis 120 minutes, after 3 hours): 30% | blood glucose concentration ([2]; Example 8: hyperglycemic pig, ethyl cyanoacrylate on 800 μm blades, iontophoresis 120 minutes, initial 180 mg/dl): 25 mg/dL
